For 20 compounds, EC50 and IC50 results are on record in patent US10316017B2, “COT modulators and methods of use thereof” (Gilead Sciences, Inc., priority 2015, dated 2019).

One may read the EC50 as the concentration that produces a half-maximal response. One may read the IC50 as the concentration that gives 50% inhibition.

Assay [1] deals with TNFα production in LPS-stimulated human monocytes. Description: Cot Monocyte TNFα Cell Based Assay. The conditions noted are these: Homo sapiens, Monocyte, LPS-stimulated human monocytes, TNFα TR-FRET; read-out: EC50 TNF. A digest of the protocol:
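TNFα release quantified by two-antibody TR-FRET, normalised to unstimulated (0%) and LPS-stimulated (100%) wells. Cells got a 1 h compound exposure at 37° C in 0.5% DMSO before 4 h challenge with 50 pg/ml LPS, at 5,000 cells/well.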
In general terms: TR-FRET usually uses a lanthanide donor and a delayed reading to cut background.

For assay [2], the target named is T1, human Cot catalytic domain (30-397 amino acids) (Homo sapiens, UniProt P41279).
T1 construct: Purified recombinant human Cot catalytic domain (30-397 amino acids) was purchased from Cama Biosciences; purchased Cama Biosciences (so in the source)
T1 sequence (P41279 30-397): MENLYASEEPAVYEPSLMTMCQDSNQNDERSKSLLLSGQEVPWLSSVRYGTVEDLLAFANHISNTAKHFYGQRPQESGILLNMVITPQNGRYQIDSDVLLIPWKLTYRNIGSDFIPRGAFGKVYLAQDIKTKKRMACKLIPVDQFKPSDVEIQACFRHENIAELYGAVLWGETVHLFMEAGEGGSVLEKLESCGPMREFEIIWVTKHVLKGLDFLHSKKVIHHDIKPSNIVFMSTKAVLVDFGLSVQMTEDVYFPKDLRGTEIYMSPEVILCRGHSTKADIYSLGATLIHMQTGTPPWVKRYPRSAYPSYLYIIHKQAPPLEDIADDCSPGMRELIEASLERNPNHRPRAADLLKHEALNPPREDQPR
Description: High Throughput Cot Biochemical Assay (KinEASE TR-FRET). The conditions noted are these: Cot KinEASE TR-FRET, 400 μM ATP; read-out: IC50 HTRF. In a few lines:
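TR-FRET (KinEASE) read-out: Eu-labelled phospho-specific antibody binds XL665-tagged STK3 peptide (1 μM) phosphorylated by 5 nM human Cot kinase domain (residues 30-397). Reaction at 400 μM ATP, pH 7.0 MOPS buffer with 10 mM MgOAc, 1 mM DTT and 0.1% DMSO.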

`CC(C)(C)CNc1c(C#N)cnc2c(Cl)cc(N[C@@H](c3ccc(C#N)cc3)c3cn(C4CC4)nn3)cc12` [Example 1084, (S)-8-chloro-6-(((4-cyanophenyl)(1-cyclopropyl-1H-1,2,3-triazol-4-yl)methyl)amino)-4-(neopentylamino)quinoline-3-carbonitrile]: the EC50 in assay [1] stood at 73 nM. Besides, the IC50 in assay [2] is 7 nM.
For `Cc1c(-c2ccncc2)cccc1[C@H](Nc1cc(Cl)c2ncc(C#N)c(NCC(C)(C)C)c2c1)c1cn(C2(C(F)F)CC2)nn1` [Example 1085, (S)-8-chloro-6-(((1-(1-(difluoromethyl)cyclopropyl)-1H-1,2,3-triazol-4-yl)(2-methyl-3-(pyridin-4-yl)phenyl)methyl)amino)-4-(neopentylamino)quinoline-3-carbonitrile], in assay [1], the EC50 amounted to 205 nM. In addition, the IC50 in assay [2] was found to be 5 nM.
`Cc1c(-c2cnn(C)c2)cccc1[C@H](Nc1cc(Cl)c2ncc(C#N)c(NCC(C)(C)C)c2c1)c1cn(C2(C(F)F)CC2)nn1` [Example 1086, (S)-8-chloro-6-(((1-(1-(difluoromethyl)cyclopropyl)-1H-1,2,3-triazol-4-yl)(2-methyl-3-(1-methyl-1H-pyrazol-4-yl)phenyl)methyl)amino)-4-(neopentylamino)quinoline-3-carbonitrile]: the EC50 in assay [1] amounted to 76 nM. For the same compound, the IC50 in assay [2] turned out to be 4 nM.
Taken in the same sequence, the figures for `CCOC(=O)c1cccc([C@H](Nc2cc(Cl)c3ncc(C#N)c(NCC(C)(C)C)c3c2)c2cn(C3(C(F)(F)F)CC3)nn2)c1F` [Example 1087, ethyl (S)-3-(((8-chloro-3-cyano-4-(neopentylamino)quinolin-6-yl)amino)(1-(1-(trifluoromethyl)cyclopropyl)-1H-1,2,3-triazol-4-yl)methyl)-2-fluorobenzoate] were 375 nM and 22 nM.
Taken in the same sequence, the figures for `COC(=O)c1cc([C@H](Nc2cc(Cl)c3ncc(C#N)c(NCC(C)(C)C)c3c2)c2cn(C3(C(F)(F)F)CC3)nn2)ccc1F` [Example 1088, methyl (S)-5-(((8-chloro-3-cyano-4-(neopentylamino)quinolin-6-yl)amino)(1-(1-(trifluoromethyl)cyclopropyl)-1H-1,2,3-triazol-4-yl)methyl)-2-fluorobenzoate] were 934 nM and 22 nM.
Taken in the same sequence, the figures for `Cc1c(C#N)cccc1[C@H](Nc1cc(Cl)c2ncc(C#N)c(NCC(C)(C)C(F)(F)F)c2c1)c1cn(C2(C(F)F)CC2)nn1` [Example 1089, (S)-8-chloro-6-(((3-cyano-2-methylphenyl)(1-(1-(difluoromethyl)cyclopropyl)-1H-1,2,3-triazol-4-yl)methyl)amino)-4-((3,3,3-trifluoro-2,2-dimethylpropyl)amino)quinoline-3-carbonitrile] were 23 nM and 7 nM.
In the case of `Cc1c(F)cccc1[C@H](Nc1cc(Cl)c2ncc(C#N)c(NCC(C)(C)C)c2c1)c1cn(C2(C(F)(F)F)CC2)nn1` [Example 1090, (S)-8-chloro-6-(((3-fluoro-2-methylphenyl)(1-(1-(trifluoromethyl)cyclopropyl)-1H-1,2,3-triazol-4-yl)methyl)amino)-4-(neopentylamino)quinoline-3-carbonitrile], the EC50 in assay [1] is 614 nM. Further, the 50% inhibitory concentration (IC50) in assay [2] came to 75 nM.
Take `CC(C)(C)CNc1c(C#N)cnc2c(Cl)cc(N[C@@H](c3cccc(C4(C#N)CC4)c3)c3cn(C4(C(F)(F)F)CC4)nn3)cc12` [Example 1091, (S)-8-chloro-6-(((3-(1-cyanocyclopropyl)phenyl)(1-(1-(trifluoromethyl)cyclopropyl)-1H-1,2,3-triazol-4-yl)methyl)amino)-4-(neopentylamino)quinoline-3-carbonitrile]: the EC50 in assay [1] was not below 1000 nM. Further, the IC50 in assay [2] was 28 nM.
`CC(C)(C)CNc1c(C#N)cnc2c(Cl)cc(N[C@@H](c3ccc(F)cc3)c3cn(C45CC(C4)C5)nn3)cc12` [Example 1092, (S)-6-(((1-(bicyclo[1.1.1]pentan-1-yl)-1H-1,2,3-triazol-4-yl)(4-fluorophenyl)methyl)amino)-8-chloro-4-(neopentylamino)quinoline-3-carbonitrile]: in assay [1], the EC50 was 395 nM. In addition, the IC50 in assay [2] came out at 20 nM.
As for `CC(C)(C)CNc1c(C#N)cnc2c(Cl)cc(N[C@@H](c3ccccc3)c3cn(C45CC(C4)C5)nn3)cc12` [Example 1093, (S)-6-(((1-(bicyclo[1.1.1]pentan-1-yl)-1H-1,2,3-triazol-4-yl)(phenyl)methyl)amino)-8-chloro-4-(neopentylamino)quinoline-3-carbonitrile], in assay [1], the EC50 came to 424 nM. Also, the IC50 in assay [2] was 17 nM.
Taken in the same sequence, the figures for `CC(C)(C)CNc1c(C#N)cnc2c(Cl)cc(N[C@@H](c3cccc(C4(C#N)CC4)c3)c3cn(C45CC(C4)C5)nn3)cc12` [Example 1094, (S)-6-(((1-(bicyclo[1.1.1]pentan-1-yl)-1H-1,2,3-triazol-4-yl)(3-(1-cyanocyclopropyl)phenyl)methyl)amino)-8-chloro-4-(neopentylamino)quinoline-3-carbonitrile] were 407 nM and 10 nM.
For the compound `Cc1c(-c2ccncc2)cccc1[C@H](Nc1cc(Cl)c2ncc(C#N)c(NCC(C)(C)C)c2c1)c1cn(C2(C(F)(F)F)CC2)nn1` [Example 1095, (S)-8-chloro-6-(((2-methyl-3 (pyridin-4-yl)phenyl)(1-(1-(trifluoromethyl)cyclopropyl)-1H-1,2,3-triazol-4-yl)methyl)amino)-4-(neopentylamino)quinoline-3-carbonitrile], the EC50 in assay [1] was determined as 226 nM. The IC50 in assay [2] was 12 nM.
Take `Cc1c(-c2cccnc2)cccc1[C@H](Nc1cc(Cl)c2ncc(C#N)c(NCC(C)(C)C)c2c1)c1cn(C2(C(F)(F)F)CC2)nn1` [Example 1096, (S)-8-chloro-6-(((2-methyl-3-(pyridin-3-yl)phenyl)(1-(1-(trifluoromethyl)cyclopropyl)-1H-1,2,3-triazol-4-yl)methyl)amino)-4-(neopentylamino)quinoline-3-carbonitrile]: the EC50 in assay [1] was determined as 262 nM. Besides, in assay [2], the IC50 came out at 10 nM.
As for `Cc1c(-c2cnn(C)c2)cccc1[C@H](Nc1cc(Cl)c2ncc(C#N)c(NCC(C)(C)C)c2c1)c1cn(C2(C(F)(F)F)CC2)nn1` [Example 1097, (S)-8-chloro-6-(((2-methyl-3-(1-methyl-1H-pyrazol-4-yl)phenyl) (1-(1-(trifluoromethyl)cyclopropyl)-1H-1,2,3-triazol-4-yl)methyl)amino)-4-(neopentylamino)quinoline-3-carbonitrile], in assay [1], the EC50 stood at 166 nM. Besides, the IC50 in assay [2] was 9 nM.
In the case of `Cc1cc(C#N)ccc1[C@H](Nc1cc(Cl)c2ncc(C#N)c(NCC(C)(C)C)c2c1)c1cn(C2(C(F)F)CC2)nn1` [Example 1098, (S)-8-chloro-6-(((4-cyano-2-methylphenyl)(1-(1-(difluoromethyl)cyclopropyl)-1H-1,2,3-triazol-4-yl)methyl)amino)-4-(neopentylamino)quinoline-3-carbonitrile], the EC50 in assay [1] is 73 nM. The IC50 in assay [2] was 23 nM.
On to `Cc1c(C#N)cccc1[C@H](Nc1cc(Cl)c2ncc(C#N)c(NCC(C)(C)C)c2c1)c1cn(C2(CF)CC2)nn1` [Example 1100, (S)-8-chloro-6-(((3-cyano-2-methylphenyl)(1-(1-(fluoromethyl)cyclopropyl)-1H-1,2,3-triazol-4-yl)methyl)amino)-4-(neopentylamino)quinoline-3-carbonitrile], for which the EC50 in assay [1] is 45 nM. Besides, the IC50 in assay [2] is 4 nM.
Turning to `Cc1c(C#N)cccc1[C@H](Nc1cc(Cl)c2ncc(C#N)c(NCC(C)(C)C)c2c1)c1cn(C2(C)CC2)nn1` [Example 1101, (S)-8-chloro-6-(((3-cyano-2-methylphenyl)(1-(1-methylcyclopropyl)-1H-1,2,3-triazol-4-yl)methyl)amino)-4-(neopentylamino)quinoline-3-carbonitrile], the EC50 in assay [1] stood at 27 nM. In addition, the IC50 in assay [2] stood at 3 nM.
For the compound `Cc1c(C#N)cccc1[C@H](Nc1cc(Cl)c2ncc(C#N)c(NCC(C)(C)C)c2c1)c1cn(C(CF)CF)nn1` [Example 1102, (S)-8-chloro-6-(((3-cyano-2-methylphenyl)(1-(1,3-difluoropropan-2-yl)-1H-1,2,3-triazol-4-yl)methyl)amino)-4-(neopentylamino)quinoline-3-carbonitrile], the EC50 in assay [1] worked out at 63 nM. Moreover, in assay [2], the IC50 stood at 8 nM.
Taken in the same sequence, the figures for `Cc1c(C#N)cccc1[C@H](Nc1cc(Cl)c2ncc(C#N)c(NCC(C)(C)C)c2c1)c1cn([C@@H](C)CF)nn1` [Example 1103, 8-chloro-6-(((S)-(3-cyano-2-methylphenyl)(1-((S)-1-fluoropropan-2-yl)-1H-1,2,3-triazol-4-yl)methyl)amino)-4-(neopentylamino)quinoline-3-carbonitrile] were 26 nM and 5 nM.
Taken in the same sequence, the figures for `Cc1c(C#N)cccc1[C@H](Nc1cc(Cl)c2ncc(C#N)c(NCC(C)(C)C(F)(F)F)c2c1)c1cn(C2(C)CC2)nn1` [Example 1104, (S)-8-chloro-6-(((3-cyano-2-methylphenyl)(1-(1-methylcyclopropyl)-1H-1,2,3-triazol-4-yl)methyl)amino)-4-((3,3,3-trifluoro-2,2-dimethylpropyl)amino)quinoline-3-carbonitrile] were 53 nM and 3 nM.
